From US9067932B2, “Pyrazolopyridine kinase inhibitors” (Vertex Pharmaceuticals Incorporated, priority 2010, dated 2015)
Read-outs that look alike come from different tables or passages of the source.

Tests used:
Format in all cases: biochemical
PKC theta kinase = PKC theta kinase (Homo sapiens, UniProt Q04759); assay: PKC theta coupled-enzyme (NADH consumption) kinase assay; conditions: 18 nM PKC theta, 240 μM ATP, 30° C., initial rate at 340 nm
Protocol: (§1) An assay buffer solution was prepared which consisted of 100 mM HEPES (pH 7.5), 10 mM MgCl2, 25 mM NaCl, 0.1 mM EDTA and 0.01% Brij. […] To 60 μL of this enzyme buffer, in a 384 well plate, was added 2 μL of VRT stock solution in DMSO. […] The enzyme reaction was initiated by the addition of 5 μL stock ATP solution prepared in assay buffer to a final assay concentration of 240 μM. Initial rate data was determined from the rate of change of absorbance at 340 nm (corresponding to stoichiometric consumption of NADH) using a Molecular Devices Spectramax plate reader (Sunnyvale, Calif.) over 15 mins at 30° C. For each Ki determination 12 data points covering the VRT concentration range of 0-20 μM were obtained in duplicate (DMSO stocks were prepared from an initial 10 mM VRT stock with subsequent 1:2 serial dilutions). Ki values were calculated from initial rate data by non-linear regression using the Prism software package (Prism 4.0a, Graphpad Software, San Diego, Calif.).

PKC delta kinase = PKC delta kinase (Homo sapiens, UniProt Q05655); assay: PKC delta coupled-enzyme (NADH consumption) kinase assay; conditions: 46 nM PKC delta, 150 μM ATP, 30° C., initial rate at 340 nm
Chain of PKC delta kinase (Q05655 whole entry): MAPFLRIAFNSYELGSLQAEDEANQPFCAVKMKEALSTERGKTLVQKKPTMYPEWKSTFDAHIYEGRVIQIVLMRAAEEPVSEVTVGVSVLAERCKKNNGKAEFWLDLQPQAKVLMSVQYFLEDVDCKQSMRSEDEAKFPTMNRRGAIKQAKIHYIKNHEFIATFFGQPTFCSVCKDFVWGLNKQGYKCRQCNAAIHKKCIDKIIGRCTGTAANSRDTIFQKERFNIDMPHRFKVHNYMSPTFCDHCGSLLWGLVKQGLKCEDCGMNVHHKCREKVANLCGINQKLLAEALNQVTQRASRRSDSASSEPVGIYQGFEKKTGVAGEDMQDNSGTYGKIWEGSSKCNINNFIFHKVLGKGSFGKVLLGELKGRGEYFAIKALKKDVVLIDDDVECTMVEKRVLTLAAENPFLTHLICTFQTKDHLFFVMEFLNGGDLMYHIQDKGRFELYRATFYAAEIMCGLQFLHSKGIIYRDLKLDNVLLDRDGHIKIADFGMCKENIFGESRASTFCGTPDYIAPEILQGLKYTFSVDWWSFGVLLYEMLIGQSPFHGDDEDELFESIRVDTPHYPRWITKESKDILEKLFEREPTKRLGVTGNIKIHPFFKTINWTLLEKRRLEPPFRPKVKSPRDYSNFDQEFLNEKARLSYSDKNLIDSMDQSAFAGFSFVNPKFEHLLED
Protocol: as §1, with “To 16” for “To 60”, “added 1” for “added 2”, “of 16” for “of 5”, “of 150” for “of 240”

PKC alpha kinase = PKC alpha kinase (Homo sapiens, UniProt P17252); assay: PKC alpha coupled-enzyme (NADH consumption) kinase assay; conditions: 4.5 nM PKC alpha, 130 μM ATP, 100 μM CaCl2, 30° C.
Protocol: An assay buffer solution was prepared which consisted of 100 mM HEPES (pH 7.5), 10 mM MgCl2, 25 mM NaCl, 0.1 mM EDTA, 100 μM CaCl2 and 0.01% Brij. An enzyme buffer containing reagents to final assay concentrations of 0.002% Triton X-100, 100 μg/mL Phosphatidylserine, 20 μg/mL Diacylglycerol, 360 μM NADH, 3 mM phosphoenolpyruvate, 70 μg/mL pyruvate kinase, 24 μg/mL lactate dehydrogenase, 2 mM DTT, 150 μM substrate peptide ([…] SEQ ID NO. 1) and 4.5 nM PKC alpha kinase was prepared in assay buffer. To 16 μL of this enzyme buffer, in a 384 well plate, was added 1 μL of VRT stock solution in DMSO. The mixture was allowed to equilibrate for 10 mins at 30° C. The enzyme reaction was initiated by the addition of 16 μL stock ATP solution prepared in assay buffer to a final assay concentration of 130 μM. Initial rate data was determined from the rate of change of absorbance at 340 nm (corresponding to stoichiometric consumption of NADH) using a Molecular Devices Spectramax plate reader (Sunnyvale, Calif.) over 15 mins at 30° C. For each Ki determination 12 data points covering the VRT concentration range of 0-20 μM were obtained in duplicate (DMSO stocks were prepared from an initial 10 mM VRT stock with subsequent 1:2 serial dilutions). Ki values were calculated from initial rate data by non-linear regression using the Prism software package (Prism 4.0a, Graphpad Software, San Diego, Calif.).

Chain of PKC theta kinase (Q04759 whole entry): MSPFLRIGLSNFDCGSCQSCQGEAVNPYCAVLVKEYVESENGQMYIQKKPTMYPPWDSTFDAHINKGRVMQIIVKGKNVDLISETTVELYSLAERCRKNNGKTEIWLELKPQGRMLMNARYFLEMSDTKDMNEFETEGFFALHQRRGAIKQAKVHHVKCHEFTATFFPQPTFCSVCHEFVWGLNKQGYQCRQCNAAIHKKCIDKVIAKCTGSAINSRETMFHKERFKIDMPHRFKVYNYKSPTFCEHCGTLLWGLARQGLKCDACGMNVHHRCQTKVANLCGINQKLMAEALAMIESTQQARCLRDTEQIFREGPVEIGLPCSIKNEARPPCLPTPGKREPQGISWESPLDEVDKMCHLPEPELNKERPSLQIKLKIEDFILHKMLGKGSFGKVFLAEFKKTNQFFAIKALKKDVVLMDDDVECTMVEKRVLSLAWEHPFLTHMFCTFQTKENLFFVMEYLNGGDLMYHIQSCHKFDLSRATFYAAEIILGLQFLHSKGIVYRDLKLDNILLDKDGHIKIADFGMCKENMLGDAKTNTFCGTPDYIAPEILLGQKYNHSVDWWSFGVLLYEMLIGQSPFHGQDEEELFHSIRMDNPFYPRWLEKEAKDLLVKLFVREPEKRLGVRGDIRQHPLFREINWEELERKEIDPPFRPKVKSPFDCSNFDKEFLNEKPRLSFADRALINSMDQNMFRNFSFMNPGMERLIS

SMILES | Ki (PKC theta kinase; read-out: Ki PKC theta) | Ki (PKC delta kinase) | Ki (PKC alpha kinase; read-out: Ki PKC alpha) | Ki (PKC theta kinase; Ki PKC theta) | Ki (PKC alpha kinase; Ki PKC alpha)
CC(C)C(N)[C@H]1CCN(c2nc(-c3n[nH]c4ncccc34)c(C#N)cc2F)C1 (single isomer, unassigned) [Compound 36] | < 500 nM | > 1250 nM | > 1250 nM |  | 
CC(C)[C@@](C)(O)[C@@H]1CN(c2nc(-c3n[nH]c4ncccc34)c(F)cc2F)CCN1 [Compound 1, (R)-2-((S)-4-(3,5-difluoro-6-(1H-pyrazolo[3,4-b]pyridin-3-yl)pyridin-2-yl)piperazin-2-yl)-3-methylbutan-2-ol] |  | < 50 nM |  | < 1 nM | < 500 nM
CC1(C)CC1(O)C1CN(c2nc(-c3n[nH]c4ncccc34)c(F)cc2F)CCN1 (stereo not shown) [Compound 2] | < 1 nM | < 10 nM | < 500 nM |  | 
CC(C)C(C)(O)C1CN(c2nc(C3N=Nc4ncccc43)c(F)cc2F)CCN1 (stereo not shown) [Compound 3] |  | < 500 nM |  | < 1 nM | < 2800 nM
CC(O)(C1CC1)C1CN(c2nc(-c3n[nH]c4ncccc34)c(F)cc2F)CCN1 (stereo not shown) [Compound 4] | < 1 nM | < 500 nM | > 1250 nM |  | 
CC(O)(C1CC1)C1CN(c2nc(-c3n[nH]c4ncccc34)c(F)cc2F)CCN1 (stereo not shown) [Compound 5] |  | < 50 nM | < 500 nM |  | 
CCC(C)(O)C1CN(c2nc(-c3n[nH]c4ncccc34)c(F)cc2F)CCN1 (stereo not shown) [Compound 6] | < 1 nM | < 50 nM | < 2800 nM |  | 
CC(C)[C@@H](O)[C@@H]1CN(c2nc(-c3n[nH]c4ncccc34)c(F)cc2F)CCN1 [Compound 7] | < 1 nM | < 50 nM | < 500 nM |  | 
CC[C@@H](O)[C@@H]1CN(c2nc(-c3n[nH]c4ncccc34)c(F)cc2F)CCN1 [Compound 8] | < 1 nM | < 50 nM | < 2800 nM |  | 
CC(C)[C@@](C)(O)[C@@H]1CN(c2nc(-c3n[nH]c4ncccc34)c(F)cc2Cl)CCN1 [Compound 9, (R)-2-((S)-4-(3-chloro-5-fluoro-6-(1H-pyrazolo[3,4-b]pyridin-3-yl)pyridin-2-yl)piperazin-2-yl)-3-methylbutan-2-ol] | < 1 nM | < 50 nM | < 500 nM |  | 
CC(C)[C@@](C)(O)[C@@H]1CN(c2nc(-c3n[nH]c4ncccc34)c(F)cc2C#N)CCN1 [Compound 10] |  |  | > 1250 nM |  | 
CC(C)(F)C(C)(O)C1CN(c2nc(-c3n[nH]c4ncccc34)c(F)cc2F)CCN1 (stereo not shown) [Compound 11] | < 1 nM | < 10 nM | < 2800 nM |  | 
CC(C)(F)C(C)(O)C1CN(c2nc(-c3n[nH]c4ncccc34)c(F)cc2F)CCN1 (stereo not shown) [Compound 12] |  | < 50 nM | < 500 nM |  | 
CC(O)(C1CN(c2nc(-c3n[nH]c4ncccc34)c(F)cc2F)CCN1)C(F)(F)F (stereo not shown) [Compound 13] | < 1 nM | < 500 nM | < 2800 nM |  | 
CC(O)(CC(F)(F)F)C1CN(c2nc(-c3n[nH]c4ncccc34)c(F)cc2F)CCN1 (stereo not shown) [Compound 15] | < 1 nM | < 50 nM | < 500 nM |  | 
COCC(C)(O)C1CN(c2nc(-c3n[nH]c4ncccc34)c(F)cc2F)CCN1 (stereo not shown) [Compound 16] | < 50 nM | < 500 nM | > 1250 nM |  | 
COCC(C)(O)C1CN(c2nc(-c3n[nH]c4ncccc34)c(F)cc2F)CCN1 (stereo not shown) [Compound 17] |  |  | < 2800 nM |  | 

SMILES | Ki (PKC theta kinase; read-out: Ki PKC theta) | Ki (PKC delta kinase) | Ki (PKC alpha kinase; read-out: Ki PKC alpha) | Ki (PKC theta kinase; Ki PKC theta) | Ki (PKC alpha kinase; Ki PKC alpha)
CCC(O)C1CN(c2nc(-c3n[nH]c4ncccc34)c(F)cc2Cl)CCN1 (stereo not shown) [Compound 18] | < 50 nM | < 500 nM | > 1250 nM |  | 
CCC(O)C1CN(c2nc(-c3n[nH]c4ncccc34)c(F)cc2Cl)CCN1 (stereo not shown) [Compound 19] | < 1 nM | < 50 nM | < 2800 nM |  | 
CC(C)C(O)C1CN(c2nc(-c3n[nH]c4ncccc34)c(F)cc2Cl)CCN1 (stereo not shown) [Compound 20] | < 1 nM | < 50 nM | < 500 nM |  | 
CC(C)C(O)C1CN(c2nc(-c3n[nH]c4ncccc34)c(F)cc2Cl)CCN1 (stereo not shown) [Compound 21] | < 50 nM | < 500 nM | < 2800 nM |  | 
CC(C)C(N)C1CCN(c2nc(-c3n[nH]c4ncccc34)c(F)cc2F)C1 (stereo not shown) [Compound 22] | < 50 nM | < 500 nM | < 2800 nM |  | 
CC(C)C(N)[C@H]1CCN(c2nc(-c3n[nH]c4ncccc34)c(F)cc2Cl)C1 (stereo partly shown) [Compound 23] | < 1 nM | < 50 nM | < 500 nM |  | 
CC(C)C(N)[C@H]1CCN(c2nc(-c3n[nH]c4ncccc34)c(F)cc2Cl)C1 (stereo partly shown) [Compound 24] | < 50 nM | < 500 nM | > 1250 nM |  | 
CC[C@H](O)[C@@H]1CN(c2nc(-c3n[nH]c4ncccc34)c(F)cc2F)CCN1 [Compound 25] | < 50 nM | < 500 nM | > 1250 nM |  | 
CC(C)(C)C(O)C1CN(c2nc(-c3n[nH]c4ncccc34)c(F)cc2Cl)CCN1 (stereo not shown) [Compound 26] | < 1 nM | < 10 nM | < 500 nM |  | 
CC(C)(C)C(O)C1CN(c2nc(-c3n[nH]c4ncccc34)c(F)cc2F)CCN1 (stereo not shown) [Compound 27] | < 1 nM | < 10 nM | < 500 nM |  | 
CC(C)C(N)[C@H]1CCN(c2nc(-c3n[nH]c4ncccc34)c(F)cc2F)C1 (stereo partly shown) [Compound 28] | < 1 nM | < 50 nM | < 500 nM |  | 
OC(C1CC1)C1CN(c2nc(-c3n[nH]c4ncccc34)c(F)cc2F)CCN1 (stereo not shown) [Compound 29] | < 1 nM | < 50 nM | < 500 nM |  | 
CC(O)(C1CC1)C1CN(c2nc(-c3n[nH]c4ncccc34)c(F)cc2Cl)CCN1 (stereo not shown) [Compound 30] | < 1 nM | < 10 nM | < 500 nM |  | 
OC(C1CC1)C1CN(c2nc(-c3n[nH]c4ncccc34)c(F)cc2Cl)CCN1 (stereo not shown) [Compound 31] | < 1 nM | < 50 nM | < 2800 nM |  | 
CC(C)[C@@](C)(O)[C@@H]1CN(c2nc(-c3n[nH]c4ncccc34)c(F)cc2O)CCN1 [Compound 32] | < 1 nM | < 10 nM | < 500 nM |  | 
CC(C)[C@@](C)(O)C1CN(c2nc(-c3n[nH]c4ncccc34)c(C#N)cc2F)CCN1 (stereo partly shown) [Compound 35] | < 500 nM |  |  |  | 
